This is an account of results in PMC11280390, “Synthesis of Nitrostyrylthiazolidine-2,4-dione Derivatives Displaying Antileishmanial Potential” (Pharmaceuticals, 2024).

Read-outs that look alike come from different tables or passages of the source.

The nature of data set [1]: In vitro cytotoxicity on the human hepatic HepG2 cell line (MTT, 72 h). Conditions: human, HepG2 cells (hepatocarcinoma cell line, ATCC HB-8065), HepG2 Cytotoxicity CC50, HepG2, 72 h, MTT. The method, then:
(§1) HepG2 cell line (hepatocarcinoma cell line purchased from ATCC, ref HB-8065) was maintained at 37 °C, 5% CO2 with 90% humidity in MEM supplemented with 10% fetal bovine serum, 1% L-glutamine (200 mM) and penicillin (100 U/mL)/streptomycin ([…]) (complete MEM medium). The tested molecules’ cytotoxicity was assessed according to the method of Mosmann with slight modifications. Briefly, 5 × 10^3 cells in 100 μL of complete medium were inoculated into each well of 96-well plates and incubated at 37 °C in a humidified 5% CO2. After 24 h incubation, 100 μL of medium with various product concentrations dissolved in DMSO (final concentration less than 0.5% v/v) were added and the plates were incubated for 72 h at 37 °C. Triplicate assays were performed for each sample. Each plate well was then microscope-examined to detect possible precipitate formation before the medium was aspirated from the wells. Then, 100 μL of MTT (3-(4,5-dimethyl-2-thiazolyl)-2,5-diphenyl-2H-tetrazolium bromide) solution (0.5 mg/mL in medium without FCS) were then added to each well. Cells were incubated for 2 h at 37 °C, following which the MTT solution was removed and DMSO (100 μL) was added to dissolve the resulting blue formazan crystals. Plates were shaken vigorously (700 rpm) for 10 min. The absorbance was measured at 570 nm with 630 nm as reference wavelength using a TECAN Infinite F-200 spectrophotometer (Tecan Trading AG, Männedorf, Switzerland). DMSO was used as blank and doxorubicin (purchased from Sigma Aldrich, Saint Louis, MI, USA) as positive control. Cell viability was calculated as a percentage of control (cells incubated without compound). […] CC50 values represent the mean value calculated from three separate experiments.

In data set [2] the test system is HepG2 cell line. The data set is described as above. The conditions noted are these: for Selectivity INDEX (SI = CC50/EC50): HepG2 CC50 / L. infantum promastigote EC50. As for the experimental part:
as §1

Data set [3] deals with Leishmania infantum promastigotes. Kind of data set: In vitro antileishmanial activity on L. infantum promastigotes (MTT, 72 h). Type of data set: cell-based. Conditions: L. infantum promastigotes, MTT, read-out: Anti-L. infantum Promastigote Activity EC50. The method, then:
Luciferase-expressing Leishmania infantum was kindly provided by Professor Thierry Lang of the Institut Pasteur. L. infantum promastigotes were routinely grown at 27 °C in Schneider’s Drosophila Medium (Dominique […] SAS, Bernolsheim, France) supplemented with 10% fetal calf serum, 2% human urine, sodium pyruvate 0.04 mM, hemin 0.1 µg/mL, HEPES 5 mM, streptomycin 100 µg/mL, penicillin 100 U/mL, L-glutamine 2 mM (culture medium). The in vitro evaluation of the antileishmanial activity of the tested compound on L. infantum promastigotes forms was assessed according to the Mosmann protocol with slight modifications. […] Appropriate controls treated with DMSO, Miltefosine, Amphotericin B and Fexinidazole sulfone (reference drugs purchased from Sigma-Aldrich, Saint-Louis, MO, USA) were added to each set of experiments. The plates were incubated at 27 °C for 72 h, Then, each plate-well was microscope-analyzed to detect any precipitate formation. Afterward, 20 µL of MTT (3-(4,5-dimethylthiazol-2-yl)-2,5-diphenyltetrazolium bromide) (Sigma-Aldrich, Saint-Louis, MI, USA) solution (5 mg/mL in PBS) were added to each well and incubated at 27 °C for 4 h. The reaction was then stopped by the addition of 100 µL of 10% sodium dodecyl sulfate—50% isopropanol. Plates were shaken vigorously at 400 rpm for 10 min. […] EC50 values represent the mean value calculated from at least three separate experiments.

A word on the melting point: it is the temperature, or range, at which the solid turns liquid. For `N#CCN1C(=O)S/C(=C\c2ccccc2[N+](=O)[O-])C1=O` [Compound 14b, (Z)-2-(5-(2-Nitrobenzylidene)thiazolidine-2,4-dion-3-yl)acetonitrile], the melting point lay within 119 to 120 °C.

Regarding `COc1cc(/C=C2\SC(=O)NC2=O)cc(OC)c1OC` [Compound 6], the melting point is 185 to 187 °C.

For `O=C(CN1C(=O)S/C(=C\c2ccccc2)C1=O)Nc1ccccc1Cl` [Compound 28a, (Z)-2-(5-Benzylidenethiazolidine-2,4-dion-3-yl)-N-(2-chlorophenyl)acetamide], the melting point lay in the range of 243 to 245 °C. `COc1cc(/C=C2\SC(=O)N(CC(C)=O)C2=O)cc(OC)c1OC` [Compound 13e] had a melting point of 139 to 140 °C. The same measure, in the same setting: then `COc1cc(/C=C2\SC(=O)N(CC(=O)Nc3ccccc3Cl)C2=O)cc(OC)c1OC` [Compound 28e, (Z)-N-(2-Chlorophenyl)-2-(5-(3,4,5-trimethoxybenzylidene)thiazolidine-2,4-dion-3-yl)acetamide], with 222 to 223 °C. The same measure, in the same setting: next, `O=C(CN1C(=O)S/C(=C\c2ccc([N+](=O)[O-])cc2)C1=O)c1ccccc1` [Compound 16d, (Z)-5-(4-Nitrobenzylidene)-3-(2-oxo-2-phenylethyl)thiazolidine-2,4-dione]: 232 to 233 °C; `CC(=O)CN1C(=O)S/C(=C\c2ccc([N+](=O)[O-])cc2)C1=O` [Compound 13d, (Z)-5-(4-Nitrobenzylidene)-3-(2-oxopropyl)thiazolidine-2,4-dione]: 207 to 209 °C; `O=C(CN1C(=O)S/C(=C\c2ccccc2)C1=O)Nc1ccc([N+](=O)[O-])cc1` [Compound 26a, (Z)-2-(5-Benzylidenethiazolidine-2,4-dion-3-yl)-N-(4-nitrophenyl)acetamide]: 270 to 272 °C. The term CC50 denotes the concentration at which the toxic effect on the cells reaches its halfway point. A word on the EC50: it is the concentration giving half of the maximal effect. In data set [1], `CCOC(=O)CN1C(=O)S/C(=C\c2cccc([N+](=O)[O-])c2)C1=O` [Compound 12c, Ethyl ((Z)-5-(3-nitrobenzylidene)thiazolidine-2,4-dion-3-yl)acetate] yielded a CC50 at 72 h of 101 to 125 µM. The “Selectivity INDEX (SI = CC50/EC50)” value in data set [2] is reported as >22.7. For the same compound, the CC50 in data set [2] (read-out: HepG2 Cytotoxicity CC50, HepG2, 72 h, MTT) was > 125 µM. Moreover, the EC50 in data set [3] (Leishmania infantum) was 5.51 ± 1.29 µM.

`COc1ccc(NC(=O)CN2C(=O)S/C(=C\c3ccc([N+](=O)[O-])cc3)C2=O)cc1` [Compound 25d, (Z)-N-(4-Methoxyphenyl)-2-(5-(4-nitrobenzylidene)thiazolidine-2,4-dion-3-yl)acetamide] gave a melting point of 254 to 256 °C. The same measure, in the same setting: then `CC(=O)CN1C(=O)S/C(=C\c2cccc([N+](=O)[O-])c2)C1=O` [Compound 13c, (Z)-5-(3-Nitrobenzylidene)-3-(2-oxopropyl)thiazolidine-2,4-dione], with 188 to 190 °C. On to `O=C1NC(=O)/C(=C/c2cccc([N+](=O)[O-])c2)S1` [Compound 4], for which the midpoint of cytotoxicity in data set [1], the CC50 at 72 h, lay at 190 ± 18.6 µM. Further, in data set [2], the “Selectivity INDEX (SI = CC50/EC50)” value is 6.8. Besides, the EC50 in data set [3] (Leishmania infantum) came to 28 ± 7.15 µM. With `CC(=O)CN1C(=O)S/C(=C\c2ccccc2[N+](=O)[O-])C1=O` [Compound 13b, (Z)-5-(2-Nitrobenzylidene)-3-(2-oxopropyl)thiazolidine-2,4-dione], the melting point lay in the range of 146 to 148 °C.

In turn, `CCOC(=O)CN1C(=O)S/C(=C\c2cc(OC)c(OC)c(OC)c2)C1=O` [Compound 12e] registered a melting point of 145 to 147 °C.

The compound `O=C(CN1C(=O)S/C(=C\c2ccc([N+](=O)[O-])cc2)C1=O)Nc1ccccc1` [Compound 23d, (Z)-2-(5-(4-Nitrobenzylidene)thiazolidine-2,4-dion-3-yl)-N-phenylacetamide] returned a melting point of 259 to 261 °C.

`CC(=O)CN1C(=O)S/C(=C\c2ccccc2)C1=O` [Compound 13a, (Z)-5-Benzylidene-3-(2-oxopropyl)thiazolidine-2,4-dione] gave a melting point of 139 to 140 °C. Still for that read-out and setting: then `O=C(CN1C(=O)S/C(=C\c2ccccc2)C1=O)c1ccccc1` [Compound 16a], with 182 to 183 °C.

The compound `COc1cc(/C=C2\SC(=O)N(CC(=O)Nc3ccc(C)cc3)C2=O)cc(OC)c1OC` [Compound 24e, (Z)-N-(4-Methylphenyl)-2-(5-(3,4,5-trimethoxybenzylidene)thiazolidine-2,4-dion-3-yl)acetamide] returned a melting point of 196 to 198 °C.

The compound `COc1ccc(NC(=O)CN2C(=O)S/C(=C\c3cc(OC)c(OC)c(OC)c3)C2=O)cc1` [Compound 25e, (Z)-N-(4-Methoxyphenyl)-2-(5-(3,4,5-trimethoxybenzylidene)thiazolidine-2,4-dion-3-yl)acetamide] showed a melting point of 215 to 216 °C.

In turn, `O=C(CN1C(=O)S/C(=C\c2cccc([N+](=O)[O-])c2)C1=O)Nc1ccccc1` [Compound 23c, (Z)-2-(5-(3-Nitrobenzylidene)thiazolidine-2,4-dion-3-yl)-N-phenylacetamide] showed a melting point of 255 to 257 °C. As to `NC(=O)CN1C(=O)S/C(=C\c2ccc([N+](=O)[O-])cc2)C1=O` [Compound 15d, (Z)-2-(5-(4-Nitrobenzylidene)thiazolidine-2,4-dion-3-yl)acetamide], the melting point is 281 to 283 °C.

For `O=C1NC(=O)/C(=C/c2ccc([N+](=O)[O-])cc2)S1` [Compound 5], the CC50 at 72 h in data set [1] was found to be 137.1 ± 1.22 µM. In data set [2], the “Selectivity INDEX (SI = CC50/EC50)” value amounted to 9.4. In addition, the EC50 in data set [3] amounted to 14.6 ± 2.9 µM. With `COc1cc(/C=C2\SC(=O)N(CC(N)=O)C2=O)cc(OC)c1OC` [Compound 15e], the melting point is 274 to 275 °C (dec.).

Consider `NC(=O)CN1C(=O)S/C(=C\c2ccccc2[N+](=O)[O-])C1=O` [Compound 15b, (Z)-2-(5-(2-Nitrobenzylidene)thiazolidine-2,4-dion-3-yl)acetamide], for which the melting point was 233 to 235 °C. `O=C(O)CN1C(=O)S/C(=C\c2cccc([N+](=O)[O-])c2)C1=O` [Compound 29, (Z)-2-(5-(3-Nitrobenzylidene)thiazolidin-2,4-dion-3-yl)acetic Acid] came in with a melting point of 191 to 193 °C. In data set [1], the CC50 at 72 h was > 250 µM. The concentration giving a half-maximal response (EC50) in data set [3] (Leishmania infantum) was > 50 µM. Take `O=C(CN1C(=O)S/C(=C\c2ccccc2)C1=O)Nc1ccccc1` [Compound 23a]: the melting point is 259 to 260 °C. Still for that read-out and setting: then `N#CCN1C(=O)S/C(=C\c2ccccc2)C1=O` [Compound 14a, (Z)-2-(5-Benzylidenethiazolidine-2,4-dion-3-yl)acetonitrile], with 230 to 232 °C. The compound `CCOC(=O)CN1C(=O)S/C(=C\c2ccccc2)C1=O` [Compound 12a] showed a CC50 at 72 h in data set [1] of 194 ± 8.92 µM. In addition, the “Selectivity INDEX (SI = CC50/EC50)” value in data set [2] is listed as 9.4. Besides, the EC50 in data set [3] (Leishmania infantum) came out at 20.6 ± 5.86 µM.

`NC(=O)CN1C(=O)S/C(=C\c2ccccc2)C1=O` [Compound 15a, (Z)-2-(5-Benzylidenethiazolidine-2,4-dion-3-yl)acetamide] displayed a melting point of 229 to 231 °C. Same read-out and setting: then `COc1cc(/C=C2\SC(=O)N(CC(=O)c3ccccc3)C2=O)cc(OC)c1OC` [Compound 16e, (Z)-3-(2-Oxo-2-phenylethyl)-5-(3,4,5-trimethoxybenzylidene)thiazolidine-2,4-dione], with 187 to 189 °C. Same read-out and setting: then `COc1cc(/C=C2\SC(=O)N(CC(=O)Nc3ccc([N+](=O)[O-])cc3)C2=O)cc(OC)c1OC` [Compound 26e, (Z)-N-(4-Nitrophenyl)-2-(5-(3,4,5-trimethoxybenzylidene)thiazolidine-2,4-dion-3-yl)acetamide], with 253 to 254 °C.
